This passage reports Efficacy, EC50 and Activity results from ChEMBL document CHEMBL1154168, “New 2-aryloxy-3-phenyl-propanoic acids as peroxisome proliferator-activated receptors alpha/gamma dual agonists with improved potency and reduced adverse effects on skeletal muscle function” (J Med Chem, 2009).

Active and inactive are the calls of the source. No cut-off for these calls is given here.

Assay [1] addresses T1, Peroxisome proliferator-activated receptor alpha (Homo sapiens) (UniProt Q07869).
T1 sequence (whole entry): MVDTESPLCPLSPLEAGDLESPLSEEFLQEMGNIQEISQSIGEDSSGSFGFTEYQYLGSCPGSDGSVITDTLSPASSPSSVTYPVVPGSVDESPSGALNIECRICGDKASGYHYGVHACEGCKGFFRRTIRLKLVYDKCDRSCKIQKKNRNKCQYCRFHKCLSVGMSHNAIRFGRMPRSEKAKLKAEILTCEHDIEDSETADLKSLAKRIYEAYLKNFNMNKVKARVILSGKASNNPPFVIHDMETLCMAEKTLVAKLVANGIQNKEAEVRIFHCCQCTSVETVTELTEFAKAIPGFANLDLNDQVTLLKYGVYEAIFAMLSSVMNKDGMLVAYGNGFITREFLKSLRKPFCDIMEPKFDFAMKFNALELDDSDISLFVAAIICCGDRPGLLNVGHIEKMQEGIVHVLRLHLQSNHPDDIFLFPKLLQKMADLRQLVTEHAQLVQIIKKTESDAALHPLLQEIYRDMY
The experiment in a line: Agonist activity at GAL4-tagged human PPARalpha ligand binding domain expressed in human HepG2 cells assessed as receptor transactivation by luciferase reporter gene assay relative to Wy-14643. Type of assay: cell-based. Background: In a reporter assay the amount or activity of a reporter protein is the signal.

Assay [2] has as its target T2, Peroxisome proliferator-activated receptor alpha (Homo sapiens, UniProt Q07869).
T2 sequence (Q07869 whole entry): T1 sequence (whole entry)
The assay is described as follows: Agonist activity at GAL4-tagged human PPARalpha ligand binding domain expressed in human HepG2 cells assessed as receptor transactivation by luciferase reporter gene assay. Type of assay: cell-based.

Assay [3] addresses T3, Peroxisome proliferator-activated receptor gamma (Homo sapiens, UniProt P37231).
T3 sequence (P37231 whole entry): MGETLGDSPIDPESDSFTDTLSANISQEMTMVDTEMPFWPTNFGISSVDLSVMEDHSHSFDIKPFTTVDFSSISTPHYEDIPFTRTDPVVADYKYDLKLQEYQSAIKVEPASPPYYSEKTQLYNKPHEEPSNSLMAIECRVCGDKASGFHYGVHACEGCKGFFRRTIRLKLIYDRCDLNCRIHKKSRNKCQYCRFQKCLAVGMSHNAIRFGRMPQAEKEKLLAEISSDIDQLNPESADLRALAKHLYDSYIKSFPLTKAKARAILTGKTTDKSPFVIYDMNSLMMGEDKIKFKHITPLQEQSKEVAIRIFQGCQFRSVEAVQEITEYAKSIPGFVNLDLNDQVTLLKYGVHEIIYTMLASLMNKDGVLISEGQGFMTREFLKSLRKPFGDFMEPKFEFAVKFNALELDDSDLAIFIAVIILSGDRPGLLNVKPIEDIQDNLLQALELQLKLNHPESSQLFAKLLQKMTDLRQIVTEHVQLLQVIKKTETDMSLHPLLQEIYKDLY

Assay [4] deals with Extensor digitorum longus. The assay is described as follows: Inhibition of resting potassium conductance in Wistar rat extensor digitorum longus muscle by electrophysiology method. Type of assay: functional, tissue-based.
The target of assay [5] is T4, Chloride channel isoform 1 (Rattus norvegicus) (UniProt Q7TT78).
T4 sequence (whole entry): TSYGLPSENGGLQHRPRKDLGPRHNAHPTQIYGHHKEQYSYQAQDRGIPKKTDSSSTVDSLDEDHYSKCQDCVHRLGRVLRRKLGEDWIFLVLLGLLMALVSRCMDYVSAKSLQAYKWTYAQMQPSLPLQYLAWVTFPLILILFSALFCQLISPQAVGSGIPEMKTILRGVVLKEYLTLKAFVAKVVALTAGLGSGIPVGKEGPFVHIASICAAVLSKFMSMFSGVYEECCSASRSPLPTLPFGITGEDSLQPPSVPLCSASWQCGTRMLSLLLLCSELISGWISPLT
The assay is described as follows: Inhibition of CIC1 in Wistar rat extensor digitorum longus muscle assessed as decrease in resting chloride channel conductance at 100 uM by electrophysiology method. Type of assay: tissue-based. Also noted: scale not given: the % may be the effect or the level left.

The target in assay [6] is T4, Chloride channel isoform 1 (Rattus norvegicus). The assay is described as follows: Inhibition of CIC1 in Wistar rat extensor digitorum longus muscle assessed as decrease in resting chloride channel conductance at 50 uM by electrophysiology method. Also noted: scale not given: the % may be the effect or the level left. Type of assay: tissue-based.
Assay [7] deals with T3, Peroxisome proliferator-activated receptor gamma. The conditions noted are these: hepg2.
Assay [8] has as its target T4, Chloride channel isoform 1 (Rattus norvegicus). The experiment in a line: Inhibition of CIC1 in Wistar rat extensor digitorum longus muscle assessed as decrease in resting chloride channel conductance at 5 uM by electrophysiology method. Type of assay: tissue-based. Also noted: scale not given: the % may be the effect or the level left.

As usually defined, the EC50 is the concentration that produces a half-maximal response. With `O=C(O)C(Cc1ccccc1)Oc1ccc(CCCc2ccccc2)cc1` (racemic), the Efficacy in assay [1] came out at 67%. In assay [2] (read-out: EC50), the 50% effective concentration (EC50) came to 720 nM.

`O=C(O)C(Cc1ccccc1)Oc1ccc(CNc2ccccc2)cc1` (racemic): the EC50 stood at 9400 nM in assay [3] and 1400 nM in assay [2] (read-out: EC50). Besides, in assay [1], the Efficacy is 120%.

With `O=C(O)[C@@H](Cc1ccccc1)Oc1ccc(Cc2ccccc2)cc1`, the EC50 in assay [3] came to 5700 nM; in assay [2] (read-out: EC50), 2400 nM. In assay [1], the Efficacy was 82%.

With `O=C(O)[C@H](Cc1ccccc1)Oc1ccc(CCc2ccccc2)cc1`, the result in assay [4] was inactive. In assay [3], this compound showed a half-maximal effective concentration (EC50) of 400 nM. Besides, the Activity in assay [5] was 24%.

In the case of `O=C(O)[C@H](Cc1ccccc1)Oc1ccc(Cc2ccccc2)cc1`, in assay [4], the outcome was inactive. The EC50 worked out at 572 nM in assay [3] and 11.5 nM in assay [2] (read-out: EC50). Besides, the Activity in assay [5] amounted to 9%; in assay [6], 2%.

Turning to `O=C(O)C(Cc1ccccc1)Oc1ccc(CCc2ccccc2)cc1` (racemic), the EC50 was 860 nM in assay [3] and 330 nM in assay [2] (read-out: EC50). Moreover, the Efficacy in assay [1] turned out to be 86%.

`O=C(O)C(Cc1ccccc1)Oc1ccc(SCc2ccccc2)cc1` (racemic): the EC50 in assay [3] came out at 1400 nM; in assay [2] (read-out: EC50), 488 nM. The Efficacy in assay [1] worked out at 134%.

`O=C(O)C(Cc1ccccc1)Oc1ccc(C#Cc2ccccc2)cc1` (racemic): the EC50 amounted to 540 nM in assay [3] and 1360 nM in assay [2] (read-out: EC50). The Efficacy in assay [1] was found to be 36%.

On to `O=C(O)C(Cc1ccccc1)Oc1ccc(CSc2ccccc2)cc1` (racemic), for which the EC50 in assay [3] came out at 400 nM; in assay [2] (read-out: EC50), 310 nM. The Efficacy in assay [1] came out at 92%.

Take `O=C(O)[C@@H](Cc1ccccc1)Oc1ccc(CCc2ccccc2)cc1`: the values for the concentration giving a half-maximal response (EC50) in assay [3] and in assay [2] (hepg2) were 1600 nM and “Not Active”, respectively. The Efficacy result in assay [1] was “inactive”.

Consider `Cc1cccc(Nc2cc(Cl)nc(SCC(=O)O)n2)c1C` [PIRINIXIC ACID], for which the EC50 result in assay [7] is listed as “Not Active”.

`CN(CCOc1ccc(CC2SC(=O)NC2=O)cc1)c1ccccn1` (stereo not drawn) [ROSIGLITAZONE]: in assay [1], the Efficacy result is “inactive”. Also, the EC50 result in assay [2] (hepg2) is “Not Active”.

Turning to `CC(C)(Oc1ccc(Cl)cc1)C(=O)O`, the Activity in assay [5] stood at 28%.

For `O=C(O)C(Cc1ccccc1)Oc1ccc(Cc2ccccc2)cc1` (racemic), the EC50 amounted to 580 nM in assay [3] and 15.9 nM in assay [2] (read-out: EC50). The Efficacy in assay [1] stood at 115%.

In the case of `O=C(O)C(Cc1ccccc1)Oc1ccc(Oc2ccccc2)cc1` (racemic), the EC50 in assay [3] came to 1210 nM; in assay [2] (read-out: EC50) it was 60 nM. For the same compound, the Efficacy in assay [1] came to 126%.

Take `O=C(O)[C@H](Cc1ccccc1)Oc1ccc(-c2ccccc2)cc1`: the result in assay [4] was inactive. The Activity stood at 2% in assay [8] and 12% in assay [5]. The Efficacy in assay [1] is 116%.

As to `O=C(O)C(Cc1ccccc1)Oc1ccc(OCc2ccccc2)cc1` (racemic), the EC50 came to 2400 nM in assay [3] and 107 nM in assay [2] (read-out: EC50). In addition, the Efficacy in assay [1] turned out to be 112%.

Take `CC(C)(Oc1ccc(C(=O)c2ccc(Cl)cc2)cc1)C(=O)O`: in assay [5], the Activity turned out to be 11%.

`O=C(O)C(Cc1ccccc1)Oc1ccc(NCc2ccccc2)cc1` (racemic): the EC50 in assay [3] is 13000 nM; in assay [2] (read-out: EC50), 3600 nM. In addition, the Efficacy in assay [1] is 78%.

For `O=C(Cc1ccccc1)c1ccc(OC(Cc2ccccc2)C(=O)O)cc1` (racemic), the results for the concentration for a half-maximal effect (EC50) in assay [3] and in assay [2] (read-out: EC50) were 9100 nM and 1800 nM, respectively. In addition, the Efficacy in assay [1] came out at 106%.

For the compound `O=C(O)C(Cc1ccccc1)Oc1ccc(COc2ccccc2)cc1` (racemic), the results for the EC50 in assay [3] and in assay [2] (read-out: EC50) were 3000 nM and 600 nM, respectively. Further, the Efficacy in assay [1] came out at 107%.
